Structures are written as SMILES. Marks after values point to notes of the source that are not given here.

Assay [1] deals with HCC1428 breast cancer model. Description: In vivo efficacy, HR+/HER2− HCC1428 breast cancer model (Example 3). Further details: species or system NSG mice. Conditions: HCC1428, Day 42; PO BID: PF-07104091 150 mpk, PF-07220060 60 mpk, palbociclib 10 mpk. The protocol: (§1) Female NSG mice (Jackson Lab) were subcutaneously implanted with fragment (27 mm^3 to 64 mm^3 size) into the dorsal region. All mice for T47D, HCC1428 and ST941 PBR studies were supplemented with 8.5 μg/mL estradiol water (β-Estradiol Sigma-Aldrich, cat #E2758-5G) and gave ad libitum till end of study. For the in vivo efficacy studies, tumor volume and body weights were measured twice a week. Tumor volume was calculated using the [(Length×Width×Width)/2)] formula. TGI was calculated as 100*(1−ΔT/ΔC). The ΔC (ΔT) was obtained by subtracting the mean tumor burden in the vehicle (treated) group on the first day of treatment (Day 0) from the mean tumor burden in vehicle (treated) group on the assessment day. Statistical analysis was performed using ANCOVA when the mean tumor volume in vehicle treated mice reached tumor cutoff size.
(§2) The HCC1428 model was established by implanting passage 4 tumor fragments into recipient mice. To establish the HCC1428 donor mice, tumor cells (5×10^6 cell/mouse with 50% Cultrex® Basement Membrane Matrix) were subcutaneously implanted in female NSG mice. Once reaching a range of 700 to 800 mm^3, donor tumors were subsequently transplanted into secondary recipient mice for a study expansion. […] PF-07104091 (lot 016), PF-07220060 (lot 019) and PD-0332991 (lot GR08498) were administered (PO.) BID (7 hr apart). All mice received treatment continuously until Day 42. TGI was assessed on Day 42 post first dose.

The subject of assay [2] is ST941 PBR PDX model. As to the kind of experiment: In vivo efficacy, palbociclib-resistant ST941 PBR PDX model (Example 3). Further details: species or system NSG mice. The following applies: ST941PBR, Day 28; PO BID: PF-07104091 150 mpk, PF-07220060 60 mpk, palbociclib 10 mpk; fulvestrant 10 mpk SC 2x week 1 then weekly. The protocol: as §1
(§3) We established model in house by continuous treatment of the ST941 PBR tumor bearing mice with PD-0332991 at 50 mg/kg, PO QD plus fulvestrant at 10 mg/kg, SC twice in the first week, then weekly thereafter. To propagate donors for the TGI study, tumors were transplanted to recipient mice. One week after the re-implantation, the recipient mice received continuous treatment with palbociclib plus fulvestrant (dosing schedule described above). After 1 to 2 serial in vivo propagation with the same treatment regimen, the resistant tumors in the range of 700 to 800 mm^3 were re-implanted for a study expansion. The remaining tumor fragments were viably frozen for future use.
The live donor mice were established by implanting ST941 PBR (p11) tumor fragments. Once reaching a range of 700 to 800 mm^3, the donor tumors were subsequently transplanted into secondary recipient mice for a study expansion. To maintain the resistant clones, the ST941 PBR tumor bearing mice were treated with PD-0332991 at 50 mg/kg, PO. QD plus fulvestrant at 10 mg/kg, SC twice in the first week, then weekly afterwards for 10 weeks. The treatment was initiated one week after the implant until day of randomization for study enrollment. […] TGI was assessed on Day 28 post first dose.

The test system of assay [3] is NCI-H23 lung adenocarcinoma (LUAD) cells. As to the kind of experiment: Spheroid growth inhibition (SGI) assay, NCI-H23. Type of assay: cell-based. The following applies: NCI-H23 spheroids; 30 nM palbociclib, 300 nM PF-07220060, 300 nM PF-07104091; 14 days. The method, then:
(§4) NCI-H1792 and NCI-H23 lung adenocarcinoma (LUAD) cells lines were obtained from ATCC and maintained in RPMI 1640 medium supplemented with 10% fetal bovine serum and penicillin-streptomycin as per ATCC guidelines. Cells were maintained in humidified incubator at 37° C. with 5% CO2.
(§5) Spheroid assays were performed in 96 well ultralow attachment plates (ULA-96U) from Nexcelom & Thermo Fisher Scientific. […] To aid spheroid formation, dispensed cells were centrifuged at 220×g for 6 minutes in the ultralow attachment plates and allowed to form compact spheroids for 4 days prior to the initiation of treatment. […] DMSO (0.01%) was used as the vehicle control. DMSO and all compounds were diluted in cell medium. Medium and compounds were replenished twice per week, with 3 and 4-day intervals. Replenishment was executed by aspirating 150 μL of medium per well without disturbing the spheroid and then adding the same volume of premixed medium/compound solution to spheroids. Spheroid diameter was quantified immediately following each medium change twice a week (on every 3rd or 4th day) throughout the duration of the assay.
(§6) Average diameters of tumor spheroids were plotted in GraphPad Prism 8 and the AUC calculated. AUC baseline was determined by the average tumor spheroid diameter at Day 0 in the vehicle (DMSO) controls. Spheroid growth inhibition, or SGI, was calculated as follows: SGI=(1−AUC treatment/AUC DMSO)×100%. SGI for all treatment arms was derived at the timepoint when the vehicle (DMSO) treated spheroids reach their maximal diameter (usually close to 1 mm but this can differ among cell lines); this corresponds to the last time point taken for the vehicle (DMSO) treated spheroids. SEM was calculated based on n=10 to 12 wells per test group.
(§7) Growth of lung adenocarcinoma multicellular tumor spheroids (MCTS) was monitored over time to assess: (i) amplitude of response (SGI) and (ii) duration of response to the CDK4 inhibitor PF-07220060 as a single agent, and in combination with the CDK2 inhibitor PF-07104091.

A further assay has as its system T47D breast cancer model. Description: In vivo efficacy, HR+/HER2− T47D breast cancer model (Example 3). Further details: species or system NSG mice. Conditions: Day 41, PO BID: PF-07104091 150 mpk, PF-07220060 60 mpk, palbociclib 10 mpk. The method, then: as §1
as §2, with “The T47D” for “The HCC1428”, “passage 3” for “passage 4”, “the T47D” for “the HCC1428”, “Day 41.” for “Day 42.”, “Day 41” for “Day 42”

Assay [4] concerns NCI-H1792 lung adenocarcinoma (LUAD) cells. Description: Spheroid growth inhibition (SGI) assay, NCI-H1792. Type of assay: cell-based. Conditions: NCI-H1792 spheroids; 30 nM palbociclib, 300 nM PF-07220060, 300 nM PF-07104091; 14 days. The method, then: as §4, §5, §6, §7
The test system of assay [5] is HCC1428 breast cancer model. As to the kind of experiment: In vivo efficacy, HR+/HER2− HCC1428 breast cancer model (Example 4). On the set-up: species or system NSG mice. Conditions: HCC1428, Day 42; PO BID: PF-07104091 120 mpk, PF-07220060 60 mpk, PF-06873600 30 mpk, palbociclib 10 mpk; fulvestrant 10 mpk SC. The method, then: as §1, with “HCC1428, MCF7” for “T47D, HCC1428”
as §2, with “passage 1” for “passage 4”, “(lot 022),” for “(lot 016),”, “(lot CPo126812-01-SY-5700-01), PF-06873600 (lot 022)” for “(lot 019)”, “administered (PO)” for “administered (PO.)”, “hr apart) while fulvestrant (lot 20160224-2) at 10 mg/kg, SC twice in the first week, then weekly afterwards.” for “hr apart).”

Another assay concerns MCF7 breast cancer model. Description: In vivo efficacy, HR+/HER2− MCF7 breast cancer model (Example 4). Further details: species or system NSG mice. The following applies: MCF7, Day 29; PO BID: PF-07104091 120 mpk, PF-07220060 60 mpk, PF-06873600 30 mpk, palbociclib 10 mpk; fulvestrant 10 mpk SC. The method, then: as §1, with “HCC1428, MCF7” for “T47D, HCC1428”
The MCF7 model was established by implanting donor tumor fragments into recipient mice. To establish the MCF7 donor mice, tumor cells (5×10^6 cell/mouse with 50% Cultrex® Basement Membrane Matrix) were subcutaneously implanted in female NSG mice. Once reaching a range of 700 to 800 mm^3, donor tumors were subsequently transplanted into secondary recipient mice for a study expansion. […] PF-07104091 (lot 022), PF-07220060 (lot CPo126812-01-SY-5700-01), PF-06873600 (lot 022) and PD-0332991 (lot GR08498) were administered (PO) BID (7 hr apart) while fulvestrant (lot 20160224-2) at 10 mg/kg, SC twice in the first week, then weekly afterwards. All mice received treatment continuously until Day 29. TGI was assessed on Day 29 post first dose

In assay [6] the test system is ST941 PBR PDX model. As to the kind of experiment: In vivo efficacy, palbociclib-resistant ST941 PBR PDX model (Example 4). Conditions: ST941PBR, Day 28, PO BID: PF-07104091 120 mpk, PF-07220060 60 mpk, PF-06873600 30 mpk, palbociclib 10 mpk, fulvestrant 10 mpk SC. On the set-up: species or system NSG mice. The method, then:
as §1, with “HCC1428, MCF7” for “T47D, HCC1428”
as §3
The live donor mice were established by implanting ST941 PBR (p13) tumor fragments. Once reaching a range of 700 to 800 mm^3, the donor tumors were subsequently transplanted into secondary recipient mice for a study expansion. To maintain the resistant clones, the ST941 PBR tumor bearing mice were treated with PD-0332991 at 50 mg/kg, PO. QD plus fulvestrant at 10 mg/kg, SC twice in the first week, then weekly afterwards for 10 weeks. The treatment was initiated one week after the implant until day of randomization for study enrollment. […] PF-07104091 (lot 021), PF-07220060 (lot CPo126812-01-SY-5700-01), PF-06873600 (lot 022) and PD-0332991 (lot GR08498) were administered (PO) BID (7 hr apart) while fulvestrant (lot 20160224-2) at 10 mg/kg, SC twice in the first week, then weekly afterwards. All mice received treatment continuously until Day 28. TGI was assessed on Day 28 post first dose.

Consider `CC(=O)c1c(C)c2cnc(Nc3ccc(N4CCNCC4)cn3)nc2n(C2CCCC2)c1=O` [palbociclib, reference compound], for which the TGI % was 44^* % in assay [1], 15% with ST941 PBR PDX model [2] and 72^* % with T47D breast cancer model. In addition, the results for the “SGI (%)” value in assay [3] and in assay [4] were 9% and 54%, respectively.
Regarding `C[C@@]1(O)CCC[C@H]1n1c(=O)c(C(F)F)cc2cnc(NC3CCN(S(C)(=O)=O)CC3)nc21` [PF-06873600, reference compound], the TGI % is given as 97% in assay [5], 70% in the assay with MCF7 breast cancer model, 47^* % with ST941 PBR PDX model [6] and 47% in the assay with ST941 PBR PDX model [6] (listed as PF-0873600).

The values are drawn from patent US20250041277A1, “METHODS AND DOSING REGIMENS COMPRISING A CDK2 INHIBITOR AND A CDK4 INHIBITOR FOR TREATING CANCER” (PFIZER INC., priority 2021, published 2025).
